What follows are molecules tested on Calu-6 (assay: cells). Details: Homo sapiens, Calu-6.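 Also: growth of human Calu-6 cells, read out by a cell viability assay, IC50 marking inhibition.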
Format: functional, cell-based, Homo sapiens
Description: SANGER: Inhibition of human Calu-6 cell growth in a cell viability assay.

Question: Which IC50 does the source give for `CC[C@H](CO)Nc1nc(NCc2ccccc2)c2ncn(C(C)C)c2n1` [SELICICLIB] here?
Answer: > 16 µM

These molecules were tested on D-247MG (assay: cells). Details: Homo sapiens, D-247MG.
Format: functional, cell-based, Homo sapiens
Description: SANGER: Inhibition of human D-247MG cell growth in a cell viability assay.

Question: How did the IC50 turn out when `CC[C@H](CO)Nc1nc(NCc2ccccc2)c2ncn(C(C)C)c2n1` [SELICICLIB] was run?
Answer: 12.4 µM

These molecules were tested on D-263MG (assay: cells). Details: Homo sapiens, D-263MG.
Format: functional, cell-based, Homo sapiens
Description: SANGER: Inhibition of human D-263MG cell growth in a cell viability assay.

Question: For `CC[C@H](CO)Nc1nc(NCc2ccccc2)c2ncn(C(C)C)c2n1` [SELICICLIB], which IC50 is on record?
Answer: > 16 µM

The molecules below were run on DB (assay: cells). Details: Homo sapiens, DB.
Format: functional, cell-based, Homo sapiens
Description: SANGER: Inhibition of human DB cell growth in a cell viability assay.

Question: With `CC[C@H](CO)Nc1nc(NCc2ccccc2)c2ncn(C(C)C)c2n1` [SELICICLIB] as the molecule, how does the IC50 read?
Answer: > 16 µM

The molecules below were run on DMS-79 (assay: cells). Details: Homo sapiens, DMS-79.
Format: functional, cell-based, Homo sapiens
Description: SANGER: Inhibition of human DMS-79 cell growth in a cell viability assay.

Question: Which IC50 does the source give for `CC[C@H](CO)Nc1nc(NCc2ccccc2)c2ncn(C(C)C)c2n1` [SELICICLIB] here?
Answer: > 16 µM

What follows are molecules tested on DU-4475 (assay: cells). Details: Homo sapiens, DU-4475.
Format: functional, cell-based, Homo sapiens
Description: SANGER: Inhibition of human DU-4475 cell growth in a cell viability assay.

Question: Which IC50 does the source give for `CC[C@H](CO)Nc1nc(NCc2ccccc2)c2ncn(C(C)C)c2n1` [SELICICLIB] here?
Answer: > 16 µM

What follows are molecules tested on EW-1 (assay: cells). Details: Homo sapiens, EW-1.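 Also: growth inhibition of the human EW-1 cell line, read out by a cell viability assay.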
Format: functional, cell-based, Homo sapiens
Description: SANGER: Inhibition of human EW-1 cell growth in a cell viability assay.

Question: For `CC[C@H](CO)Nc1nc(NCc2ccccc2)c2ncn(C(C)C)c2n1` [SELICICLIB], which IC50 is on record?
Answer: > 16 µM

Each molecule was assayed on HCC2218 (assay: cells). Details: Homo sapiens, HCC2218.
Format: functional, cell-based, Homo sapiens
Description: SANGER: Inhibition of human HCC2218 cell growth in a cell viability assay.

Question: For `CC[C@H](CO)Nc1nc(NCc2ccccc2)c2ncn(C(C)C)c2n1` [SELICICLIB], which IC50 is on record?
Answer: > 16 µM

Each molecule was assayed on HEL (assay: cells). Details: Homo sapiens, HEL.
Format: functional, cell-based, Homo sapiens
Description: SANGER: Inhibition of human HEL cell growth in a cell viability assay.

Question: With `CC[C@H](CO)Nc1nc(NCc2ccccc2)c2ncn(C(C)C)c2n1` [SELICICLIB] as the molecule, how does the IC50 read?
Answer: > 16 µM

The molecules below were run on HT (assay: cells). Details: Homo sapiens, HT.
Format: functional, cell-based, Homo sapiens
Description: SANGER: Inhibition of human HT cell growth in a cell viability assay.

Question: With `CC[C@H](CO)Nc1nc(NCc2ccccc2)c2ncn(C(C)C)c2n1` [SELICICLIB] as the molecule, how does the IC50 read?
Answer: > 16 µM

The molecules below were run on HT-144 (assay: cells). Details: Homo sapiens, HT-144.
Format: functional, cell-based, Homo sapiens
Description: SANGER: Inhibition of human HT-144 cell growth in a cell viability assay.

Question: How did the IC50 turn out when `CC[C@H](CO)Nc1nc(NCc2ccccc2)c2ncn(C(C)C)c2n1` [SELICICLIB] was run?
Answer: > 16 µM

These molecules were tested on HuTu80 (assay: cells). Details: Homo sapiens, HuTu80.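 Also: growth inhibition of HuTu80 human cells, determined with a cell viability readout.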
Format: functional, cell-based, Homo sapiens, HUTU-80
Description: SANGER: Inhibition of human HUTU-80 cell growth in a cell viability assay.

Question: `CC[C@H](CO)Nc1nc(NCc2ccccc2)c2ncn(C(C)C)c2n1` [SELICICLIB] was tested. Which IC50 did it give?
Answer: > 16 µM

What follows are molecules tested on JAR (assay: cells). Details: Homo sapiens, JAR.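 Also: growth inhibition of human JAR cells determined with a cell viability assay.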
Format: functional, cell-based, Homo sapiens
Description: SANGER: Inhibition of human JAR cell growth in a cell viability assay.

Question: How did the IC50 turn out when `CC[C@H](CO)Nc1nc(NCc2ccccc2)c2ncn(C(C)C)c2n1` [SELICICLIB] was run?
Answer: > 16 µM

What follows are molecules tested on KM12 (assay: cells). Details: Homo sapiens, KM12.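 Also: KM12 cell growth inhibition, read out with a cell viability assay.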
Format: functional, cell-based, Homo sapiens
Description: SANGER: Inhibition of human KM12 cell growth in a cell viability assay.

Question: How did the IC50 turn out when `CC[C@H](CO)Nc1nc(NCc2ccccc2)c2ncn(C(C)C)c2n1` [SELICICLIB] was run?
Answer: > 16 µM

Each molecule was assayed on LB996-RCC (assay: cells). Details: Homo sapiens, LB996-RCC.
Format: functional, cell-based, Homo sapiens
Description: SANGER: Inhibition of human LB996-RCC cell growth in a cell viability assay.

Question: With `CC[C@H](CO)Nc1nc(NCc2ccccc2)c2ncn(C(C)C)c2n1` [SELICICLIB] as the molecule, how does the IC50 read?
Answer: > 16 µM

These molecules were tested on LC-2-ad (assay: cells). Details: Homo sapiens, LC-2-ad.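 Also: growth inhibition of human LC-2-ad cells, read out with a cell viability assay.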
Format: functional, cell-based, Homo sapiens
Description: SANGER: Inhibition of human LC-2-ad cell growth in a cell viability assay.

Question: With `CC[C@H](CO)Nc1nc(NCc2ccccc2)c2ncn(C(C)C)c2n1` [SELICICLIB] as the molecule, how does the IC50 read?
Answer: > 16 µM

What follows are molecules tested on LNCaP-Clone-FGC (assay: cells). Details: Homo sapiens, LNCaP-Clone-FGC.
Format: functional, cell-based, Homo sapiens
Description: SANGER: Inhibition of human LNCaP-Clone-FGC cell growth in a cell viability assay.

Question: Which IC50 does the source give for `CC[C@H](CO)Nc1nc(NCc2ccccc2)c2ncn(C(C)C)c2n1` [SELICICLIB] here?
Answer: > 16 µM

These molecules were tested on MZ1-PC (assay: cells). Details: Homo sapiens, MZ1-PC.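 Also: cell viability assay measuring growth inhibition of human MZ1-PC cells.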
Format: functional, cell-based, Homo sapiens
Description: SANGER: Inhibition of human MZ1-PC cell growth in a cell viability assay.

Question: `CC[C@H](CO)Nc1nc(NCc2ccccc2)c2ncn(C(C)C)c2n1` [SELICICLIB] was tested. Which IC50 did it give?
Answer: > 16 µM

The molecules below were run on MZ7-mel (assay: cells). Details: Homo sapiens, MZ7-mel.
Format: functional, cell-based, Homo sapiens
Description: SANGER: Inhibition of human MZ7-mel cell growth in a cell viability assay.

Question: How did the IC50 turn out when `CC[C@H](CO)Nc1nc(NCc2ccccc2)c2ncn(C(C)C)c2n1` [SELICICLIB] was run?
Answer: > 16 µM

Each molecule was assayed on NB10 (assay: cells). Details: Homo sapiens, NB10.
Format: functional, cell-based, Homo sapiens
Description: SANGER: Inhibition of human NB10 cell growth in a cell viability assay.

Question: `CC[C@H](CO)Nc1nc(NCc2ccccc2)c2ncn(C(C)C)c2n1` [SELICICLIB] was tested. Which IC50 did it give?
Answer: > 16 µM

Each molecule was assayed on NB5 (assay: cells). Details: Homo sapiens, NB5.
Format: functional, cell-based, Homo sapiens
Description: SANGER: Inhibition of human NB5 cell growth in a cell viability assay.

Question: How did the IC50 turn out when `CC[C@H](CO)Nc1nc(NCc2ccccc2)c2ncn(C(C)C)c2n1` [SELICICLIB] was run?
Answer: > 16 µM

These molecules were tested on NCI-H1092 (assay: cells). Details: Homo sapiens, NCI-H1092.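 Also: cell growth inhibition measured with a cell viability assay.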
Format: functional, cell-based, Homo sapiens
Description: SANGER: Inhibition of human NCI-H1092 cell growth in a cell viability assay.

Question: For `CC[C@H](CO)Nc1nc(NCc2ccccc2)c2ncn(C(C)C)c2n1` [SELICICLIB], which IC50 is on record?
Answer: > 16 µM

What follows are molecules tested on NCI-H2126 (assay: cells). Details: Homo sapiens, NCI-H2126.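 Also: growth inhibition of the cancer cell line, determined with a cell viability readout.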
Format: functional, cell-based, Homo sapiens
Description: SANGER: Inhibition of human NCI-H2126 cell growth in a cell viability assay.

Question: `CC[C@H](CO)Nc1nc(NCc2ccccc2)c2ncn(C(C)C)c2n1` [SELICICLIB] was tested. Which IC50 did it give?
Answer: > 16 µM

Each molecule was assayed on NCI-H226 (assay: cells). Details: Homo sapiens, NCI-H226.
Format: functional, cell-based, Homo sapiens
Description: SANGER: Inhibition of human NCI-H226 cell growth in a cell viability assay.

Question: Which IC50 does the source give for `CC[C@H](CO)Nc1nc(NCc2ccccc2)c2ncn(C(C)C)c2n1` [SELICICLIB] here?
Answer: > 16 µM
